Key:
[1] = system: normal rabbit primary keratocytes; test: Suppression of three-dimensional collagen gel degradation in normal rabbit primary keratocytes (Example 1); assay type: cell-based; conditions: R667 0.1-1000 nM; stimulant 10 ng/ml and Plasminogen 60 μg/ml; 48 hours of culturing; FIG. 1
Description: Normal rabbit corneal cells were used to assess the suppression effect of a tested compound on three-dimensional collagen gel degradation in accordance with the method of Nishida et al (Investigative Ophthalmology & Visual Science 42: 1247-1253 (2001)).
Primary keratocytes collected from a normal rabbit eye ball was grown to a confluent state and detached from a culture slide with 0.05% Trypsin-EDTA. After washing in a serum free medium (product number 11095; Gibco), the number of cells were counted. The obtained primary keratocytes were mixed with the type I collagen solution Cellmatrix Type I-A (product number 637-00653; Nitta Gelatin Inc.) and Reconstitution Buffer (product number 635-00791; Nitta Gelatin Inc.) and dispensed into a 24-well plate so that the final concentration would be 1×10^5 cells/well to make a collagen gel. […]
After 48 hours of culturing, the supernatant was ultrafiltrated, 100 μl of concentrated hydrochloric acid was added and heated, and the collagen was hydrolyzed. […] The amount of hydroxyproline, which is the collagen degradation product in the solution, was measured in accordance with the method of Bergman et al (Analytical Chemistry 35(12): 1961-1965 (1963)) to assess the effect of suppressing collagen degradation of RARγ agonist A. The results are shown in FIG. 1.

[2] = system: primary subconjunctival fibroblasts; test: Suppression of three-dimensional collagen gel contraction, primary subconjunctival fibroblasts (Example 2); assay type: cell-based, rabbit; conditions: TGF-β1 1 ng/ml, RARγ agonist A 1, 10, 100 nM, after 48 hours, FIG. 2
Description: (§1) Primary subconjunctival fibroblasts and primary keratocytes were used to assess the suppression effect of a tested compound on three-dimensional collagen gel contraction in accordance with the method of Nishida et al. As in Example 1, primary subconjunctival fibroblasts were grown and detached from a culture slide. After washing, a cell suspension was made. The resulting suspension (1.1×10^7 cells/well MEM), type I collagen solution (5 mg/ml), 10×MEM, Reconstitution Buffer, and water were mixed on ice at 0.2:7:1:1:1.8 (volume ratio). A culture dish coated with 1% BSA was inoculated with 0.5 ml of the mixture, which was incubated for one hour at 37° C. to make a collagen gel. Then, 0.5 ml of serum free media, to which a certain amount (1 ng/ml) of TGF-β1 (R&D Systems) and RARγ agonist A at each of the concentrations 1 nM, 10 nM, and 100 nM were added, were each added onto the above-described gel. The gel, together with a gel to which an agent-free serum-free medium was added, was continuously incubated at 37° C. The diameter of gels was measured from the time when 24 hours has past.

primary keratocytes [3] = test: Suppression of three-dimensional collagen gel contraction, primary keratocytes (Example 2); assay type: cell-based, rabbit; conditions: TGF-β1, FIG. 3
Description: as §1, with “past. The gel diameter was measured for primary keratocytes in a similar manner to the primary subconjunctival fibroblasts.” for “past.”

primary keratocytes [4] = test: Suppression of three-dimensional collagen gel degradation in primary keratocytes by RARγ agonist A, B or C (Example 3); assay type: cell-based, rabbit; conditions: R667 1 nM, CD437 1 nM and 10 nM, BMS961 10 nM; stimulant IL-1β 10 ng/ml and Plasminogen 60 μg/ml; 48 hours; FIG. 4
Description: As in Example 1, primary keratocytes were grown and detached from a culture slide. After washing, a cell suspension was made. The resulting suspension (1.1×10^7 cells/well MEM), type I collagen solution (5 mg/ml), 10×MEM, Reconstitution Buffer, and water were mixed on ice at 0.2:7:1:1:1.8 (volume ratio). A culture dish coated with 1% BSA was inoculated with 0.5 ml of the mixture, which was incubated for one hour at 37° C. to make a collagen gel.
After 48 hours of culturing, collagen was hydrolyzed and the amount of hydroxyproline, which is the collagen degradation product, was measured by the same method as Example 1 to assess the effect of suppressing collagen degradation of each RARγ agonist.

MMP-1 = test: Suppression of expression and activation of MMP-1, western blot of keratocyte supernatant; assay type: cell-based, rabbit; conditions: R667 1×10^−6 to 1×10^−2 μM, 12 hours of pre-treatment; 0.1 ng/ml, 24 hours; FIG. 5A
Description: (§2) It is believed that secretion or expression of protease, i.e., matrix metalloproteinases (MMP), is associated with the degradation of type I collagen. In this regard, suppression of expression and activation of MMP-1, 2, 3, and 9 by RARγ agonist A was investigated. Primary keratocytes collected from a normal rabbit eye ball were cultured for 24 hours in a serum-free MEM medium. RARγ agonist A ([…]) ([…] concentration: 1×10^-6 μM, 1×10^-5 μM, 1×10^-4 μM, 1×10^-3 μM, 1×10^-2 μM) was added to the obtained culture solution and 12 hours of pre-treatment was performed. As a positive control, 10 nM of dexamethasone (Dex), which is a synthetic steroid, was added and pre-treatment was similarly performed. Then, IL-113 (0.1 ng/ml) was added for stimulation, and the supernatant was collected after 24 hours. The following western blot analysis and gelatin zymography analysis were used on the collected culture solution. After developing the supernatant of the collected culture solution in SDS-PAGE using 10% polyacrylamide gel, the separated proteins were transferred onto a nitrocellulose filter. Then, non-specific sites on the nitrocellulose filter were blocked and incubated for 24 hours at 4° C. with anti-human MMP-1 antibodies (R&D Systems) and anti-rabbit MMP-3 antibodies (Daiichi Fine Chemical Co., Ltd). ECL® reagent (GE Healthcare) was used for detection.

MMP-3 = test: Suppression of expression and activation of MMP-3, western blot of keratocyte supernatant; assay type: cell-based, rabbit; conditions: R667 1×10^−6 to 1×10^−2 μM, 12 hours of pre-treatment; IL-113 0.1 ng/ml, 24 hours; FIG. 5A
Description: as §2

MMP-2 = test: Suppression of expression and activation of MMP-2, gelatin zymography of keratocyte supernatant; assay type: cell-based, rabbit; conditions: R667 1×10^−6 to 1×10^−2 μM, 12 hours of pre-treatment; 0.1 ng/ml, 24 hours; FIG. 5B
Description: (§3) It is believed that secretion or expression of protease, i.e., matrix metalloproteinases (MMP), is associated with the degradation of type I collagen. In this regard, suppression of expression and activation of MMP-1, 2, 3, and 9 by RARγ agonist A was investigated. Primary keratocytes collected from a normal rabbit eye ball were cultured for 24 hours in a serum-free MEM medium. RARγ agonist A ([…]) ([…] concentration: 1×10^-6 μM, 1×10^-5 μM, 1×10^-4 μM, 1×10^-3 μM, 1×10^-2 μM) was added to the obtained culture solution and 12 hours of pre-treatment was performed. As a positive control, 10 nM of dexamethasone (Dex), which is a synthetic steroid, was added and pre-treatment was similarly performed. Then, IL-113 (0.1 ng/ml) was added for stimulation, and the supernatant was collected after 24 hours. The following western blot analysis and gelatin zymography analysis were used on the collected culture solution. After developing the supernatant of the collected culture solution on SDS-PAGE using 10% polyacrylamide gel containing 0.1% of gelatin, it was incubated for one hour at room temperature with a TBS solution containing 2.5% Triton X-100. The gel after incubation was dyed with a solution of Coomassie Brilliant Blue (Wako Pure Chemical Industries, Ltd.) and decolored with a 5% methanol-7.5% acetic acid solution (Nacalai Tesque, Inc).

MMP-9 = test: Suppression of expression and activation of MMP-9, gelatin zymography of keratocyte supernatant; assay type: cell-based, rabbit; conditions: R667 1×10^−6 to 1×10^−2 μM, 12 hours of pre-treatment; IL-113 0.1 ng/ml, 24 hours; FIG. 5B
Description: as §3

[5] = system: male Japanese white rabbits; test: Suppression of corneal opacity and ulceration, LPS injected into the corneal stroma; assay type: in vivo, rabbit; conditions: 0.1% R667 (24 mM), 50 μl instillation, four times daily until day 10; 1% LPS into the corneal stroma; FIG. 6B
Description: Systemic anesthesia was applied to male Japanese white rabbits (body weight 2.5-3.5 kg, 27 rabbits) by intramuscular administration of a solution of a mixture of ketamine and xylazine. Then, topical anesthesia was applied by a 0.4% oxybuprocaine hydrochloride instillation. Furthermore, 30 μl of 1% LPS (Sigma Aldrich) was injected into the corneal stroma of one eye, but not in the other eye.
50 μl of 0.1% PBS/0.1% polysorbate 80 solution containing RARγ agonist A (R667: 0.1%, 24 mM) was instillatively administered to the rabbits injected with LPS twice after the injection on the day of LPS injection and four times daily thereafter until day 10 by using a micropipette. As a control, a 0.1% PBS/0.1% polysorbate 80 solution free of RARγ agonist A (Vehicle) was similarly administered. FIGS. 6A and 6B show representative examples of a control and a case where RARγ agonist A was administered.

CC1(C)CCC(C)(C)c2cc(Cn3cccn3)c(/C=C/c3ccc(C(=O)O)cc3)cc21 [RARγ agonist A, (E)-4-(2-{3-[(1H-pyrazole-1-yl)methyl]-5,5,8,8-tetramethyl-5,6,7,8-tetrahydronaphthalene-2-yl}vinyl)benzoic acid]
effect of suppressing collagen degradation (amount of hydroxyproline) [1]: dosage-dependent effect of suppressing keratoconjunctive collagen degradation | suppression of collagen gel contraction (diameter of collagen gel) [2]: can suppress | suppression of collagen gel contraction (diameter of collagen gel) (primary keratocytes [3]): can suppress | effect of suppressing collagen degradation (ratio of amount of hydroxyproline) (primary keratocytes [4]): exhibited an effect of suppressing keratoconjunctive collagen degradation | expression and activation of MMP-1 (bands of Pro-MMP-1 and active MMP-1) (MMP-1): concentration-dependently suppresses | expression and activation of MMP-3 (bands of Pro-MMP-3 and active MMP-3) (MMP-3): concentration-dependently suppresses | expression and activation of MMP-2 (bands of Pro-MMP-2 and active MMP-2) (MMP-2): concentration-dependently suppresses | expression and activation of MMP-9 (bands of Pro-MMP-9 and active MMP-9) (MMP-9): concentration-dependently suppresses | corneal opacity and ulceration [5]: corneal opacity and ulceration were not observed

From patent publication US20180000782A1, “THERAPEUTIC AGENT FOR KERATOCONJUNCTIVE DISORDERS” (priority 2012, published 2018)
